Measurements: US7396837B2, “Antitumoral analogs of lamellarins” (Pharma Mar, S.A.U., priority 2002, dated 2008)
Like-named read-outs stand apart in the source and are kept apart here.

Legend:
human topoisomerase I = biological target: T1, human topoisomerase I (Homo sapiens, UniProt P11387); test: Topoisomerase I DNA relaxation assay (supercoiled plasmid DNA); format: biochemical; conditions: supercoiled plasmid DNA, each compound tested at 1 μM, agarose gel with ethidium bromide
T1 sequence (P11387 1-765): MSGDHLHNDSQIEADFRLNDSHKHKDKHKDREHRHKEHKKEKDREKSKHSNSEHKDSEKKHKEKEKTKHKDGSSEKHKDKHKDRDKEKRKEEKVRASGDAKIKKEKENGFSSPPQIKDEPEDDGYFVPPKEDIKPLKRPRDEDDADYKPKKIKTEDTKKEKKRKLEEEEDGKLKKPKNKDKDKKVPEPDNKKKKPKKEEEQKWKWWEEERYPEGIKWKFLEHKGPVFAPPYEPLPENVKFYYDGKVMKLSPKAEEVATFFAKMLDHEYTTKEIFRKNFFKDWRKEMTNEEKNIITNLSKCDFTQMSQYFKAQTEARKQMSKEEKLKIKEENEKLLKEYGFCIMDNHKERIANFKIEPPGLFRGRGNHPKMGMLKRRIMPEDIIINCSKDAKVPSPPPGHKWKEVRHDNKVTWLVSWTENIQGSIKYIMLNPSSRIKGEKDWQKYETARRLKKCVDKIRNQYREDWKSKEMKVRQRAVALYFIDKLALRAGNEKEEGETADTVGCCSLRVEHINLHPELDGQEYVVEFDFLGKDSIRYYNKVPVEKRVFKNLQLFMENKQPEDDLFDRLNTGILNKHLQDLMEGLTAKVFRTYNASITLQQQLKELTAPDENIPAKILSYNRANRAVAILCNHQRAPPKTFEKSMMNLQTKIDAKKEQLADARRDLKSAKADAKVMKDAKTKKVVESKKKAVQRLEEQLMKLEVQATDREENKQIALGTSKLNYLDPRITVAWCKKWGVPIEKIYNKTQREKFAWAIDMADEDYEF
Description: Two assays, based on DNA relaxation and DNA cleavage (Bailly, C. DNA relaxation and cleavage assays to study topoisomerase I inhibitors. Methods Enzymol. 2001, 340, 610-623) were used evaluate the effects of the lamellarin analogs on the catalytic activity of human topoisomerase I.
In the first assay, a supercoiled plasmid DNA was relaxed with topoisomerase I in the absence or presence of the test compounds, each tested at 1 μM. DNA relaxation products were then resolved by gel electrophoresis on agarose gels containing ethidium bromide to stain the DNA.

A-549 = test: SRB colorimetric cell growth inhibition assay, A-549; format: cell-based; conditions: for GI50: GI=growth inhibition, read-out: GI50 A-549
Procedure, shortened: (§1)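 After uninterrupted treatment, cultures are fixed and stained with sulforhodamine B, and absorbance reflects cell growth and viability. Each value represents the average of triplicate wells with SD.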

SK-MEL-28 = test: SRB colorimetric cell growth inhibition assay, SK-MEL-28; format: cell-based
Procedure, shortened: as §1

HT-29 = test: SRB colorimetric cell growth inhibition assay, HT-29; format: cell-based
Procedure, shortened: as §1

LoVo = test: SRB colorimetric cell growth inhibition assay, LoVo; format: cell-based; conditions: for IC (TGI): TGI=total growth inhibition (cytostatic effect), read-out: TGI LOVO
Procedure, shortened: as §1

LoVo-Dox = test: SRB colorimetric cell growth inhibition assay, LoVo-Dox (MDR); format: cell-based
Procedure, shortened: as §1

IGROV-ET = test: SRB colorimetric cell growth inhibition assay, IGROV-ET (ET-743 resistant); format: cell-based; conditions: for CC50: LC=cell killing (cytotoxic effect)
Procedure, shortened: as §1

PANC-1 = test: SRB colorimetric cell growth inhibition assay, PANC-1; format: cell-based
Procedure, shortened: as §1

SKOV-3 = test: SRB colorimetric cell growth inhibition assay, SKOV-3; format: cell-based
From the text: (§2) Inhibition of Cell Growth by Colorimetric Assay.
(§3) A colorimetric type of assay, using sulforhodamine B (SRB) reaction has been adapted for a quantitative measurement of cell growth and viability (following the technique described by P. A. Skehan, et al., J. Natl. Cancer Inst. 1990, 82, 1107-1112).
(§4) This form of assay employs 96 well cell culture microplates of 9 mm diameter (T. Mosmann et al., J. of Immunological Methods 1983, 65, 55-63; G. T. Faircloth et al., J. of Tissue and Culture Methods 1988, 11, 201-205).
(§5) Most of the cell lines are obtained from American Type Culture Collection (ATCC) derived from different human cancer types.
(§6) The values for mean +/− SD of data from triplicate wells are calculated. Some parameters for cellular responses can be calculated: GI=growth inhibition, TGI=total growth inhibition (cytostatic effect) and LC=cell killing (cytotoxic effect).

H-MEC-1 = test: SRB colorimetric cell growth inhibition assay, H-MEC-1; format: cell-based; conditions: for IC (TGI): Homo sapiens
From the text: as §2, §3, §4, §5, §6

K-562 = test: SRB colorimetric cell growth inhibition assay, K-562; format: cell-based; conditions: K-562
Procedure, shortened: as §1

DU-145 = test: SRB colorimetric cell growth inhibition assay, DU-145; format: cell-based; conditions: DU-145
Procedure, shortened: as §1

LNCaP = test: SRB colorimetric cell growth inhibition assay, LNCaP; format: cell-based; conditions: LN-caP
Procedure, shortened: as §1

SK-BR-3 = test: SRB colorimetric cell growth inhibition assay, SK-BR-3; format: cell-based; conditions: SK-BR-3
Procedure, shortened: as §1

IGROV = test: SRB colorimetric cell growth inhibition assay, IGROV; format: cell-based; conditions: IGROV
Procedure, shortened: as §1

[1] = TGI=total growth inhibition (cytostatic effect)

COc1cc(-c2c3n(c4c(=O)oc5cc(OC(=O)[C@@H](NC(=O)OC(C)(C)C)C(C)C)c(OC)cc5c24)CCc2cc(OC(=O)[C@@H](NC(=O)OC(C)(C)C)C(C)C)c(OC)cc2-3)ccc1OC(=O)[C@@H](NC(=O)OC(C)(C)C)C(C)C [Compound 144]
stimulation of DNA cleavage by topoisomerase I / inhibition of topoisomerase I (nicked DNA band) in DNA relaxation assay (human topoisomerase I): No effect

COc1cc(-c2c3c4cc(OC)c(OC(=O)[C@H](NC(=O)OC(C)(C)C)C(C)C)cc4oc(=O)c3n3ccc4cc(OC(=O)[C@H](NC(=O)OC(C)(C)C)C(C)C)c(OC)cc4c23)ccc1OC(=O)[C@H](NC(=O)OC(C)(C)C)C(C)C [Compound 122]
stimulation of DNA cleavage by topoisomerase I / inhibition of topoisomerase I (nicked DNA band) in DNA relaxation assay (human topoisomerase I): No effect

COc1cc(-c2c3n(c4c(=O)oc5cc(OC(C)=O)c(OC)cc5c24)CCc2cc(OC(C)=O)c(OC)cc2-3)ccc1OC(C)=O [Compound 108]
stimulation of DNA cleavage by topoisomerase I / inhibition of topoisomerase I (nicked DNA band) in DNA relaxation assay (human topoisomerase I): inactive

COc1cc(-c2c3n(c4c(=O)oc5cc(OC(=O)[C@H](C)NC(=O)OC(C)(C)C)c(OC)cc5c24)CCc2c-3cc(OC)c(OC)c2OC(=O)[C@H](C)NC(=O)OC(C)(C)C)ccc1OC(=O)[C@H](C)NC(=O)OC(C)(C)C [Compound 46]
GI50 (A-549; A-549): 2.33 µM | GI50 (A-549; Homo sapiens, A549, A-549): 1.31 µM | IC (TGI) (A-549; Homo sapiens, A549, A-549, TGI=total growth inhibition (cytostatic effect), read-out: TGI A-549): 9.57 µM | CC50 (A-549; Homo sapiens, A549, read-out: LC50 A-549, A-549, LC=cell killing (cytotoxic effect)): 9.57 µM | IC (TGI) (SK-MEL-28; Homo sapiens, SK-MEL-28, MEL-28; TGI=total growth inhibition (cytostatic effect); read-out: TGI MEL-28): 0.00417 µM | IC (TGI) (SK-MEL-28; Homo sapiens, SK-MEL-28; MEL-28; TGI=total growth inhibition (cytostatic effect); read-out: TGI MEL-28): 9.57 µM | CC50 (HT-29; Homo sapiens, HT-29, read-out: LC50 HT-29, HT-29, LC=cell killing (cytotoxic effect)): 9.57 µM | IC (TGI) (HT-29; Homo sapiens, HT-29, TGI=total growth inhibition (cytostatic effect), read-out: TGI HT-29): 9.57 µM | CC50 (LoVo; Homo sapiens, LoVo, read-out: LC50 LOVO, LOVO, LC=cell killing (cytotoxic effect)): 9.57 µM | IC (TGI) (LoVo; Homo sapiens, LoVo): 0.00932 µM | IC (TGI) (LoVo; Homo sapiens, LOVO): 9.57 µM | IC (TGI) (LoVo-Dox; Homo sapiens, LOVO-DOX; TGI=total growth inhibition (cytostatic effect); read-out: TGI LOVO-DOX): 0.0957 µM | CC50 (LoVo-Dox; Homo sapiens, read-out: LC50 LOVO-DOX, LOVO-DOX; LC=cell killing (cytotoxic effect)): 9.57 µM | IC (TGI) (LoVo-Dox; Homo sapiens; LOVO-DOX; TGI=total growth inhibition (cytostatic effect); read-out: TGI LOVO-DOX): 9.57 µM | CC50 (IGROV-ET; Homo sapiens, read-out: LC50 IGROV-ET, IGROV-ET): 9.57 µM | CC50 (PANC-1; Homo sapiens, PANC-1, read-out: LC50 PANC-1, PANC-1, LC=cell killing (cytotoxic effect)): 9.57 µM | CC50 (SKOV-3; Homo sapiens, SK-OV-3, read-out: LC50 SKOV-3): 9.57 µM | IC (TGI) (H-MEC-1; HMEC-1, read-out: TGI H-MEC-1, H-MEC-1, TGI=total growth inhibition (cytostatic effect)): 9.57 µM | IC (TGI) (H-MEC-1; HMEC-1, H-MEC-1, TGI=total growth inhibition (cytostatic effect), read-out: TGI H-MEC-1): 0.000847 µM

COc1cc(-c2c3n(c4c(=O)oc5cc(OC(C)=O)c(OC)cc5c24)CCc2cc(OC)c(OC(C)=O)cc2-3)ccc1OC(C)=O [Compound 94]
GI50 (K-562; GI=growth inhibition, read-out: GI50 K-562): 0.526 µM | CC50 (K-562; cell killing (cytotoxic effect), read-out: LC50 K-562): 4.32 µM | TGI K-562 (K-562; total growth inhibition (cytostatic effect)): 1.82E−06 Molar | GI50 (A-549; A-549): 7.19 µM | CC50 (A-549; A-549, cell killing (cytotoxic effect), read-out: LC50 A-549): 15.9 µM | TGI A-549 (A-549; A-549, total growth inhibition (cytostatic effect)): 1.59E−05 Molar | GI50 (SK-MEL-28; MEL-28; GI=growth inhibition; read-out: GI50 MEL-28): 2.45 µM | CC50 (SK-MEL-28; MEL-28; LC=cell killing (cytotoxic effect); read-out: LC50 MEL-28): 15.9 µM | TGI MEL-28 (SK-MEL-28; MEL-28; TGI=total growth inhibition (cytostatic effect)): 7.31E−06 Molar | GI50 (HT-29; HT-29, GI=growth inhibition, read-out: GI50 HT-29): 15.5 µM | CC50 (HT-29; HT-29, cell killing (cytotoxic effect), read-out: LC50 HT-29): 15.9 µM | TGI HT-29 (HT-29; HT-29, total growth inhibition (cytostatic effect)): 1.59E−05 Molar | GI50 (LoVo; LOVO, GI=growth inhibition, read-out: GI50 LOVO): 5.7 µM | CC50 (LoVo; LOVO, cell killing (cytotoxic effect), read-out: LC50 LOVO): 15.9 µM | TGI LOVO (LoVo; LOVO, total growth inhibition (cytostatic effect)): 1.59E−05 Molar | GI50 (LoVo-Dox; LOVO-DOX; GI=growth inhibition; read-out: GI50 LOVO-DOX): 2.84 µM | CC50 (LoVo-Dox; LOVO-DOX; cell killing (cytotoxic effect); read-out: LC50 LOVO-DOX): 15.9 µM | TGI LOVO-DOX (LoVo-Dox; LOVO-DOX; total growth inhibition (cytostatic effect)): 8.25E−06 Molar | GI50 (DU-145; GI=growth inhibition, read-out: GI50 DU-145): 13.1 µM | CC50 (DU-145; LC=cell killing (cytotoxic effect), read-out: LC50 DU-145): 15.9 µM | TGI DU-145 (DU-145; [1]): 1.59E−05 Molar | GI50 (LNCaP; GI=growth inhibition, read-out: GI50 LN-caP): 0.673 µM | CC50 (LNCaP; LC=cell killing (cytotoxic effect), read-out: LC50 LN-caP): 12.5 µM | TGI LN-caP (LNCaP; [1]): 2.87E−06 Molar | GI50 (SK-BR-3; GI=growth inhibition, read-out: GI50 SK-BR-3): 3.35 µM | CC50 (SK-BR-3; LC=cell killing (cytotoxic effect), read-out: LC50 SK-BR-3): 15.9 µM | TGI SK-BR-3 (SK-BR-3; [1]): 1.24E−05 Molar | GI50 (IGROV; GI=growth inhibition, read-out: GI50 IGROV): 1.83 µM | CC50 (IGROV; LC=cell killing (cytotoxic effect), read-out: LC50 IGROV): 15.9 µM | TGI IGROV (IGROV; [1]): 5.90E−06 Molar | GI50 (IGROV-ET; IGROV-ET, GI=growth inhibition, read-out: GI50 IGROV-ET): 1.59 µM | CC50 (IGROV-ET; IGROV-ET, read-out: LC50 IGROV-ET): 15.9 µM | TGI IGROV-ET (IGROV-ET; IGROV-ET, TGI=total growth inhibition (cytostatic effect)): 1.59E−05 Molar | GI50 (PANC-1; PANC-1, GI=growth inhibition, read-out: GI50 PANC-1): 2.12 µM | CC50 (PANC-1; PANC-1, cell killing (cytotoxic effect), read-out: LC50 PANC-1): 15.9 µM | TGI PANC-1 (PANC-1; PANC-1, total growth inhibition (cytostatic effect)): 1.59E−05 Molar | GI50 (SKOV-3; SKOV-3, GI=growth inhibition, read-out: GI50 SKOV-3): 8.48 µM | CC50 (SKOV-3; SKOV-3, LC=cell killing (cytotoxic effect), read-out: LC50 SKOV-3): 15.9 µM | TGI SKOV-3 (SKOV-3; SKOV-3, TGI=total growth inhibition (cytostatic effect)): 1.59E−05 Molar | GI50 (H-MEC-1; H-MEC-1, GI=growth inhibition): 15.9 µM | CC50 (H-MEC-1; H-MEC-1, LC=cell killing (cytotoxic effect), read-out: LC50 H-MEC-1): 15.9 µM | TGI H-MEC-1 (H-MEC-1; H-MEC-1, TGI=total growth inhibition (cytostatic effect)): 1.59E−05 Molar

COc1cc(-c2c3n(c4c(=O)oc5cc(OC(=O)c6cc(F)c(F)c(F)c6F)c(OC)cc5c24)CCc2cc(OC(=O)c4cc(F)c(F)c(F)c4F)c(OC)cc2-3)ccc1OC(=O)c1cc(F)c(F)c(F)c1F [Compound 139]
stimulation of DNA cleavage by topoisomerase I / inhibition of topoisomerase I (nicked DNA band) in DNA relaxation assay (human topoisomerase I): inactive
